# Assays:
# Tyrosinase = target: T1, Tyrosinase (Mus musculus, UniProt P11344); assay: Inhibition of tyrosinase in mouse Melan-a cells by ELISA; format: cell-based
# T1 sequence (P11344 whole entry): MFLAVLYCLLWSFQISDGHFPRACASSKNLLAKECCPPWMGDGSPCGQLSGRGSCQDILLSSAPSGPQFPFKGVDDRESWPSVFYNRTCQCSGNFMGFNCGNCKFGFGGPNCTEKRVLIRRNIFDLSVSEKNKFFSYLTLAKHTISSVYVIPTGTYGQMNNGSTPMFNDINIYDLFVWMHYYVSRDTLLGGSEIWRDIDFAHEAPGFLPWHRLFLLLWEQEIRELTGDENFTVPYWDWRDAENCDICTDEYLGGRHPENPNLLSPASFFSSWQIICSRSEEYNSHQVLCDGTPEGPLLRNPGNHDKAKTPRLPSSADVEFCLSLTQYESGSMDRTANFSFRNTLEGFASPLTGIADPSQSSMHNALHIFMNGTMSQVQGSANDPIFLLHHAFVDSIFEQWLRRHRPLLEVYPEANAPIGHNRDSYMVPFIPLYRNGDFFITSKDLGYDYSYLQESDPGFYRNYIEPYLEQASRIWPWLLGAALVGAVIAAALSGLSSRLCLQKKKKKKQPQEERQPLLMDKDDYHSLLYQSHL
# Melan-a = assay: Inhibition of melanin formation in mouse Melan-a cells after 5 days by ELISA; format: functional, cell-based; conditions: 120 h
# [1] = Antioxidant activity assessed as superoxide radical scavenging activity after 2 mins by NBT reduction assay; format: functional
SMILES,IC50 (Tyrosinase) [µM],IC50 (Melan-a) [µM],IC50 [1] [µM]
O=c1c(-c2ccc(O)c(O)c2)coc2cc(O)ccc12,5.23,7.83,10.5
O=c1c(-c2ccc(O)cc2)coc2cc(O)c(O)cc12,> 500,> 500,> 500
O=c1c(-c2ccc(O)cc2)coc2c(O)c(O)ccc12,11.2,12.2,18.1
OC[C@H]1O[C@@H](Oc2ccc(O)cc2)[C@H](O)[C@@H](O)[C@@H]1O [ARBUTIN],,98,
O=C1O[C@H]([C@@H](O)CO)C(O)=C1O [ASCORBIC ACID],,,65.1
O=c1c(-c2ccc(O)cc2)coc2cc(O)ccc12 [DAIDZEIN],> 500,> 500,> 500
O=c1c(-c2ccc(O)cc2)coc2cc(O)cc(O)c12 [GENISTEIN],> 500,57.8,489
COc1cc2c(=O)c(-c3ccc(O)cc3)coc2cc1O [GLYCITEIN],> 500,> 500,> 500

# Reference: ChEMBL document CHEMBL1157737, “Natural ortho-dihydroxyisoflavone derivatives from aged Korean fermented soybean paste as potent tyrosinase and melanin formation inhibitors” (Bioorg Med Chem Lett, 2010)
